The subject of the assay is 233499-124-R-J3-PDC spheroids with HUVEC/MSC, viability. Nature of the assay: Anticancer human tumor 233499-124-R-J3-PDC patient-derived colon adenocarcinoma cell line growth inhibition [PI3K]. The note with it: for viability, T/C: stronger effect = lower value. From the text: Combinatorial screen of targeted agents with the PI3K inhibitors inavolisib, alpelisib, duvelisib, and copanlisib in multi-cell type tumor spheroids
A high-throughput screen of multi-cell type tumor spheroids was designed to identify active combinations of targeted small molecules and PI3K pathway inhibitors. Complex spheroids include a stromal component modeled by human endothelial cells (HUVEC) and fibroblasts modeled by human mesenchymal stem cells (MSCs). The concentration ranges selected for each drug and investigational agent were based upon clinically achievable concentrations if the clinical Cmax of the agent was known.
Compounds. The drugs and investigational agents: inavolisib (NSC800729), alpelisib (NSC765974), duvelisib (NSC772469), copanlisib (NSC816437), ipatasertib (NSC767898), afuresertib (NSC778305), talazoparib (NSC767125), sapanisertib (NSC764658), selumetinib (NSC741078), tovorafenib (DAY101, NSC766906), vemurafenib (NSC761431), ravoxertinib (NSC781343), sotorasib (NSC818433), MRTX1133 (NSC 836407), abemaciclib (NSC 768073), palbociclib (NSC758247), venetoclax (NSC 766270), SY5609 (NSC837396), enzalutamide (NSC755605), and darolutamide (NSC825331), were obtained from the National Cancer Institute (NCI) Developmental Therapeutics Program Chemical Repository. The FDA-approved anticancer drug set is available from the NCI Developmental Therapeutics Program. […] The stock solutions were prepared in dimethyl sulfoxide (DMSO, Sigma-Aldrich, St. Louis, MO, cat. D2650) at 800-fold the tested concentration and stored at -70 degrees C prior to their use. All drugs and investigational agents were tested over a range starting from a high concentration at or near the clinical Cmax and decreasing in half-log increments. If the clinical Cmax for an agent had not been determined, the highest concentration tested was 10 microM.
Cell Culture. All cells were maintained in an incubator at 37 degrees C and 5% CO2 with 95% humidity. The PDC lines were cultured according to standard operating procedures established by the NCI PDMR (https://pdmr.cancer.gov/sops/default.htm). All PDCs were thawed and cultured in Matrigel-coated flasks prepared with a working solution of 1X Ham's F-12 nutrient mix, without supplementation (Invitrogen, Waltham, MA, cat. 11765054), 100 U/mL penicillin-streptomycin (Invitrogen, cat. 15140122), and 2.5% Matrigel (Corning Inc., Corning, NY, cat. 354248) for the first three passages. The 354836-022-R-J1-PDC, 475296-252-R-J1-PDC, and 997726-040-R-J2-PDC lines were cultured in 6A media, which includes advanced DMEM/F-12 (Thermo Fisher Scientific, cat. 12634028), 10 mM HEPES (Thermo Fisher Scientific, cat. 15630080), 1X GlutaMAX supplement (Thermo Fisher Scientific, cat. 35050061), 0.1 mg/mL primocin (InvivoGen, San Diego, CA, cat. ant-pm-2), 10% defined fetal bovine serum, heat inactivated (HyClone Laboratories Inc., Logan, UT, cat. SH30070.03HI), 50% L-WRN conditioned media (ATCC, cat. CRL-3276), 1.25 mM N-Acetyl-L-cysteine (Sigma-Aldrich, cat. A9165), 10 mM nicotinamide (Sigma-Aldrich, cat. N0636), 1X B-27 supplement (Thermo Fisher Scientific, cat. 17504044), 1X N-2 supplement (Thermo Fisher Scientific, cat. 17502048), and 10 microM Y-27632 dihydrochloride (Tocris Bioscience, Bristol, United Kingdom, cat. 1254). The 624824-186-R-J2-PDC line was cultured in 6C/Colon 1B media, which includes all 6A media components plus 50 ng/mL human EGF recombinant protein (Thermo Fisher Scientific, cat. PHG0311). […]
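Note: spheroids exposed to agents for seven days before readout.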
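Throughout, for viability, T/C: percent viability relative to DMSO vehicle control taken as 100%.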

The viability, T/C is the result in the treated group divided by that in the control group, in per cent. Usually IC50 stands for the concentration that gives 50% inhibition. With `CC(Cn1ccc(-c2ccc(C#N)c(Cl)c2)n1)NC(=O)c1cc(C(C)O)[nH]n1` (centres undefined), the viability, T/C runs as follows: (compound 0.316 µM) 97.2% [middle of 4 runs]; (compound 1 µM) 98.2% [middle of 4 runs]; (compound 3.16 µM) 92.5% [middle of 4 runs]. In addition, the IC50 (curve of compound) was over 10000 nM.

Consider `C[C@@H](NC(=O)c1ncnc(N)c1Cl)c1ncc(C(=O)Nc2cc(C(F)(F)F)c(Cl)cn2)s1`, for which the viability, T/C by setting is: (compound 3.16 µM) 110% [middle of 4 runs]; (compound 10 µM) 110% [middle of 4 runs]. The IC50 (curve of compound) was over 10000 nM.

Regarding `Cn1cnc2c(F)c(Nc3ccc(Br)cc3Cl)c(C(=O)NOCCO)cc21` + CC(Nc1ccc2c(c1)OCCn1cc(N3C(=O)OCC3C(F)F)nc1-2)C(N)=O, the IC50 (curve of first compound, second compound 0.00316 µM) was determined as 479 nM; the IC50 (curve of first compound, second compound 0.01 µM) was 541 nM; the IC50 (curve of first compound, second compound 0.0316 µM) was 262 nM; the IC50 (curve of first compound, second compound 0.1 µM) came to 200 nM; the IC50 (curve of first compound, second compound 0.316 µM) was 134 nM; the IC50 (curve of first compound, second compound 1 µM) is 17.1 nM. In addition, the viability, T/C (second compound 0.00316 µM, first compound 0.00949 µM) is 85%; the viability, T/C (second compound 0.00316 µM, first compound 0.03 µM) is 80%; the viability, T/C (second compound 0.00316 µM, first compound 0.0949 µM) was 75.1%; the viability, T/C (second compound 0.00316 µM, first compound 0.3 µM) was 57%; the viability, T/C (second compound 0.00316 µM, first compound 0.949 µM) is 38.4%; the viability, T/C (second compound 0.00316 µM, first compound 3 µM) was 18.7%. Further, the viability, T/C is 79.7% (second compound 0.01 µM, first compound 0.00949 µM); 85.1% (second compound 0.01 µM, first compound 0.03 µM); 80.3% (second compound 0.01 µM, first compound 0.0949 µM); 64.1% (second compound 0.01 µM, first compound 0.3 µM); 36.4% (second compound 0.01 µM, first compound 0.949 µM); 21.9% (second compound 0.01 µM, first compound 3 µM). The viability, T/C is 80.4% (second compound 0.0316 µM, first compound 0.00949 µM); 90.6% (second compound 0.0316 µM, first compound 0.03 µM); 78.7% (second compound 0.0316 µM, first compound 0.0949 µM); 45.7% (second compound 0.0316 µM, first compound 0.3 µM); 30.2% (second compound 0.0316 µM, first compound 0.949 µM); 23.8% (second compound 0.0316 µM, first compound 3 µM). In addition, the viability, T/C runs as follows: (second compound 0.1 µM, first compound 0.00949 µM) 77.6%; (second compound 0.1 µM, first compound 0.03 µM) 60.8%; (second compound 0.1 µM, first compound 0.0949 µM) 62.1%; (second compound 0.1 µM, first compound 0.3 µM) 47.4%; (second compound 0.1 µM, first compound 0.949 µM) 22.9%; (second compound 0.1 µM, first compound 3 µM) 16.8%. The viability, T/C (second compound 0.316 µM, first compound 0.00949 µM) is 70.2%; the viability, T/C (second compound 0.316 µM, first compound 0.03 µM) is 82.6%; the viability, T/C (second compound 0.316 µM, first compound 0.0949 µM) is 53.6%; the viability, T/C (second compound 0.316 µM, first compound 0.3 µM) was 37.1%; the viability, T/C (second compound 0.316 µM, first compound 0.949 µM) was 29.2%; the viability, T/C (second compound 0.316 µM, first compound 3 µM) is 24.2%. For the same molecule, the viability, T/C was 57% (second compound 1 µM, first compound 0.00949 µM); 42% (second compound 1 µM, first compound 0.03 µM); 38.2% (second compound 1 µM, first compound 0.0949 µM); 19.8% (second compound 1 µM, first compound 0.3 µM); 28.7% (second compound 1 µM, first compound 0.949 µM); 12.7% (second compound 1 µM, first compound 3 µM).
